Experiments:
[1] = biological target: T1, S-nitrosoglutathione reductase (GSNOR) (Homo sapiens, UniProt P11766); test: GSNOR assay (inhibition of GSNOR activity, NADH absorbance at 340 nm); format: biochemical; conditions: GSNOR inhibitor activity, Tables 1-6; read-out: IC50 range
T1 construct: made in house; host or cells: E. coli
In short: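 Recombinant GSNOR purified from E. coli, tag removed. Final conditions: 100 mM NaPO4 pH 7.4, 0.240 mM GSNO, 0.300 mM NADH, 0.5 μg/mL enzyme, 1% DMSO; NADH loss followed as 340 nm absorbance change over 3 min at 25 °C. Compounds 100–0.003 μM, triplicate; IC50 by curve analysis.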

[2] = Mouse pharmacokinetic (PK) study; format: in vivo; conditions: male, BALB/c, plasma, po, 10 mg/kg, male BALB/c mice, 2 mg/kg IV, 10 mg/kg PO, read-out: oral bioavailability (% F)
Text: The mouse was used to determine the pharmacokinetics of compounds of the invention. This species is widely used to assess the bioavailability of compounds by administering both oral (PO) and intravenous (IV) test articles. Efficacy of the compounds of the invention was compared by assessing plasma exposure in male BALB/c mice either via IV or PO administration at the times of peak activity.
Compounds of the invention were reconstituted in a phosphate buffered saline (PBS)/10% Solutol (HS 15) clear solution resulting in a concentration of 0.2 mg/mL and administered to mice (2 mg/kg) as a single IV dose. Animals were dosed via the lateral tail vein. Blood samples were collected at designated time points (0.083, 0.25, 0.5, 1, 2, 4, 8, 16, 24 hours) by cardiac puncture under isoflurane anesthesia (up to 1 mL blood per animal). The blood was collected into tubes containing Li-Heparin. The blood samples were kept on ice until centrifugation within approximately 30 minutes of collection. The plasma was transferred into labeled polypropylene tubes and frozen at −70° C. until analyzed by LC/MS/MS.
The compounds of the invention were reconstituted in 40% Propylene Glycol/40% Propylene Carbonate/20% of a 5% Sucrose clear solution resulting in a concentration of 2 mg/mL and administered to mice (10 mg/kg) as a single oral dose via gavage. Blood samples were collected at 0.25, 0.5, 1, 2, 4, 8, 12, 16, 20 and 24 hours post dose by cardiac puncture under isoflurane anesthesia. The blood was collected in tubes containing Li-Heparin. The blood samples were kept on ice until centrifugation within approximately 30 minutes of collection. The plasma was transferred into labeled polypropylene tubes and frozen at −70° C. until analyzed by LC/MS/MS.
Plasma samples at each timepoint were analyzed using a LC-MS/MS with a lower limit of quantification (LLOQ) of 1 ng/mL. Plasma was analyzed to determine the amount of the compound of the invention in each sample and regression curves generated for each compounds of the invention in the relevant matrixes.
WinNonlin analysis was used for calculating PK parameters for both the IV and PO administrations:
PK parameters for IV portion—AUClast; AUCINF; T1/2; Cl; Vss; Cmax; MRT
PK parameters for PO portion—AUClast; AUCINF; T1/2; Cmax; Cl, MRT.
In addition to the above PK parameters, bioavailability (% F) was calculated.

[3] = system: dextran sodium sulfate (DSS)-induced IBD; test: Acute prophylactic model of DSS-induced IBD; format: in vivo, mouse; conditions: for decrease of percent of mice with severe colon injury scores via histopathology / decrease of percent of mice with severe colon injury scores via endoscopy: prophylactic
Text: Acute and chronic models of dextran sodium sulfate (DSS)-induced IBD in mice were used to explore efficacy of GSNORi against this disease. Acute and chronic DSS-induced IBD are widely used and well characterized models that induce pathological changes in the colon similar to those observed in the human disease. In these models and in human disease, epithelial cells within the crypts of the colon are disrupted, leading to dysfunction of the epithelial barrier and the ensuing tissue inflammation, edema, and ulceration. GSNORi therapy may benefit IBD by restoring s-nitrosoglutathione (GSNO) levels, and thus prevent or reverse the epithelial barrier dysfunction. Experimental IBD was induced by administration of DSS in the drinking water of male C57Bl/6 mice (N=8 to 10 mice per group) for 6 consecutive days. GSNORi was dosed orally at doses of 0.1 to 10 mg/kg/day for 10 days starting two days prior to and continuing two days post DSS exposure. […] Levels of circulating cytokines involved in inflammatory pathways were also assessed. The effect of GSNORi was compared to vehicle treated controls. […] Naïve mice (N=5) were also assessed as a normal tissue control.

T1 sequence (P11766 whole entry): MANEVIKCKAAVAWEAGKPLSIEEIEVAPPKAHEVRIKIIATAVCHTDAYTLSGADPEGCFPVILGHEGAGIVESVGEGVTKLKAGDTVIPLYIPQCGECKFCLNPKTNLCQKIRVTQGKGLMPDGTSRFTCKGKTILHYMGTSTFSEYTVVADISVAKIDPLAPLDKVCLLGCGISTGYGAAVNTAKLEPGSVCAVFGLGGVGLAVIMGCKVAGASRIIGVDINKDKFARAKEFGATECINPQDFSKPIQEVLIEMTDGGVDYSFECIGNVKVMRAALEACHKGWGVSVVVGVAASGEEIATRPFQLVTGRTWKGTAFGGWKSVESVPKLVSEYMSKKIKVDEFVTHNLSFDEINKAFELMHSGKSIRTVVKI

IC50 [1] [nM] | bioavailability [2] [%] | Compound | decrease of percent of mice with severe colon injury scores via histopathology ([3]; oral 10 mg/kg/day for 10 days) | decrease of percent of mice with severe colon injury scores via endoscopy ([3]; oral 10 mg/kg/day for 10 days) | decrease of percent of mice with severe colon injury scores via pathology ([3]; oral 0.1 mg/kg/day for 10 days) | decrease of percent of mice with severe colon injury scores via endoscopy ([3]; oral 0.1 mg/kg/day for 10 days) | decrease of percent of mice with severe colon injury scores via endoscopy ([3]; oral 1 mg/kg/day for 10 days) | decrease of percent of mice with severe colon injury scores via histopathology ([3]; oral 1 mg/kg/day for 10 days)
< 100 | > 9 | O=c1[nH]c(-c2ccc(-c3c(C(F)(F)F)oc4cc(O)ccc4c3=O)cc2)no1 [IV-31] |  |  |  |  |  | 
< 100 | > 9 | O=c1c(-c2ccc(-c3nnn[nH]3)cc2)c(C(F)(F)F)oc2cc(O)ccc12 [IV-23] | 17 % of vehicle control | 75 % of vehicle control |  |  |  | 
< 100 | > 9 | O=c1c2ccc(O)cc2oc(C(F)(F)F)c1[C@H]1CC[C@H](C(=O)O)CC1 [IV-25] |  |  | 12 % of vehicle control | 38 % of vehicle control | 25 % of vehicle control | 33 % of vehicle control
< 100 | > 9 | O=C(O)c1ccc(-c2c(C(F)(F)F)oc3cc(O)ccc3c2=O)c(F)c1 [IV-38] | 15 % of vehicle control | 58 % of vehicle control |  |  |  | 

Compound | IC50 [1] [nM] | bioavailability [2] [%] | decrease of percent of mice with severe colon injury scores via histopathology ([3]; oral 10 mg/kg/day for 10 days) | decrease of percent of mice with severe colon injury scores via endoscopy ([3]; oral 10 mg/kg/day for 10 days) | decrease of percent of mice with severe colon injury scores via pathology ([3]; oral 0.1 mg/kg/day for 10 days) | decrease of percent of mice with severe colon injury scores via endoscopy ([3]; oral 0.1 mg/kg/day for 10 days) | decrease of percent of mice with severe colon injury scores via endoscopy ([3]; oral 1 mg/kg/day for 10 days) | decrease of percent of mice with severe colon injury scores via histopathology ([3]; oral 1 mg/kg/day for 10 days)
O=C(O)c1ccc(-c2ccc3cc(O)ccc3c2)c(F)c1 [III-2] | < 100 | > 9 | 26 % of vehicle control |  |  |  |  | 

Source: patent US20140094465A1, “Compounds as S-Nitrosoglutathione Reductase Inhibitors” (N30 PHARMACEUTICALS, INC., priority 2011, published 2014)
